pEC50: −log10 of the molar value.
Tests used:
[1] = system: MOLT-4 acute lymphoblastic leukemia cells; assay: Cell viability, tetrazolium-based MTS assay, MOLT-4; details: Homo sapiens, MOLT-4, 48 h; read-out: Anti-Cancer Activity EC50 (48 hr), MOLT-4
Experimental: (§1) Acute lymphoblastic leukemia cells (MOLT-4 and RS4;11) were incubated with increasing concentrations of Bcl-xL/Bcl-2 degraders for 48 h. Cell viability was measured by tetrazolium-based MTS assay.

[2] = system: WI-38 irradiation-induced senescent cells (IR-SC); assay: Senolytic activity, cell viability (PrestoBlue HS), WI-38 IR-SC; format: cell-based; details: Homo sapiens, 72 h
Experimental: To induce senescence in WI-38 and HUVEC, cells were subjected to x-ray irradiation at 20 Gray using X-RAD 320 biological irradiator. Following between 10 to 15 days after irradiation, senescence was induced in cells, and irradiation-induced senescent cells (IR-SC) were then used for cell viability and Western blotting tests.
(§2) WI-38 and HUVEC cells were incubated with increasing concentrations of degraders for 72 h. Cell viability was measured using PrestoBlue HS cell viability reagent.

WI-38 NC = assay: Senolytic activity, cell viability (PrestoBlue HS), WI-38 NC; format: cell-based; details: for pEC50: Homo sapiens, 72 h
Experimental: as §2

[3] = system: RS4;11 acute lymphoblastic leukemia cells; assay: Cell viability, tetrazolium-based MTS assay, RS4;11; details: Homo sapiens, RS4;11, 48 h, read-out: Anti-Cancer Activity EC50 (48 hr), RS4
Experimental: as §1

Compound | pEC50 [1] | pEC50 [3] | pEC50 [2] | pEC50 (WI-38 NC) | Senolytic Activity EC50 (72 hr), WI-38 NC (WI-38 NC)
C[C@@]1(CN2CCN(C(=O)CN3CCC(CCN4CCN(c5ccc6c(c5)CN(C5CCC(=O)NC5=O)C6=O)CC4)CC3)CC2)CCC(c2ccc(Cl)cc2)=C(CN2CCN(c3ccc(C(=O)NS(=O)(=O)c4ccc(N[C@H](CCN5CCCOCC5)CSc5ccccc5)c(S(=O)(=O)C(F)(F)F)c4)cc3)CC2)C1 (stereo partly drawn) [Compound 10, N-((4-(((R)-4-(1,4-oxazepan-4-yl)-1-(phenylthio)butan-2-yl)amino)-3-((trifluoromethyl)sulfonyl)phenyl)sulfonyl)-4-(4-(((4R)-4′-chloro-4-((4-(2-(4-(2-(4-(2-(2,6-dioxopiperidin-3-yl)-1-oxoisoindolin-5-yl)piperazin-1-yl)ethyl)piperidin-1-yl)acetyl)piperazin-1-yl)methyl)-4-methyl-3,4,5,6-tetrahydro-[1,1′-biphenyl]-2-yl)methyl)piperazin-1-yl)benzamide] | > 9.00 | > 9.00 | 7.00 to 8.00 | < 5.00 | 
CC1(CN2CCN(C(=O)CN3CCN(C(=O)CNc4cccc5c4C(=O)N(C4CCC(=O)NC4=O)C5=O)CC3)CC2)CCC(c2ccc(Cl)cc2)=C(CN2CCN(c3ccc(C(=O)NS(=O)(=O)c4ccc(N[C@H](CCN5CCOCC5)CSc5ccccc5)c(S(=O)(=O)C(F)(F)F)c4)cc3)CC2)C1 (stereo partly drawn) [Compound 16, 4-(4-((4′-chloro-4-((4-(2-(4-((2-(2,6-dioxopiperidin-3-yl)-1,3-dioxoisoindolin-4-yl)glycyl)piperazin-1-yl)acetyl)piperazin-1-yl)methyl)-4-methyl-3,4,5,6-tetrahydro-[1,1′-biphenyl]-2-yl)methyl)piperazin-1-yl)-N-((4-(((R)-4-morpholino-1-(phenylthio)butan-2-yl)amino)-3-((trifluoromethyl)sulfonyl)phenyl)sulfonyl)benzamide] | > 9.00 | > 9.00 | 7.00 to 8.00 | < 5.00 | 
C[C@@]1(CN2CC(CN3CCN(c4ccc5c(c4)CN(C4CCC(=O)NC4=O)C5=O)CC3)C2)CCC(c2ccc(Cl)cc2)=C(CN2CCN(c3ccc(C(=O)NS(=O)(=O)c4ccc(N[C@H](CCN5CCCOCC5)CSc5ccccc5)c(S(=O)(=O)C(F)(F)F)c4)cc3)CC2)C1 (stereo partly drawn) [Compound 24, N-((4-(((R)-4-(1,4-oxazepan-4-yl)-1-(phenylthio)butan-2-yl)amino)-3-((trifluoromethyl)sulfonyl)phenyl)sulfonyl)-4-(4-(((4R)-4′-chloro-4-((3-((4-(2-(2,6-dioxopiperidin-3-yl)-1-oxoisoindolin-5-yl)piperazin-1-yl)methyl)azetidin-1-yl)methyl)-4-methyl-3,4,5,6-tetrahydro-[1,1′-biphenyl]-2-yl)methyl)piperazin-1-yl)benzamide] | 8.00 to 9.00 | > 9.00 |  | < 5.00 | 
C[C@@]1(CN2CCC(CC#Cc3ccc4c(c3)CN(C3CCC(=O)NC3=O)C4=O)CC2)CCC(c2ccc(Cl)cc2)=C(CN2CCN(c3ccc(C(=O)NS(=O)(=O)c4ccc(N[C@H](CCN5CCCOCC5)CSc5ccccc5)c(S(=O)(=O)C(F)(F)F)c4)cc3)CC2)C1 (stereo partly drawn) [Compound 29, N-((4-(((R)-4-(1,4-oxazepan-4-yl)-1-(phenylthio)butan-2-yl)amino)-3-((trifluoromethyl)sulfonyl)phenyl)sulfonyl)-4-(4-(((4R)-4′-chloro-4-((4-(3-(2-(2,6-dioxopiperidin-3-yl)-1-oxoisoindolin-5-yl)prop-2-yn-1-yl)piperidin-1-yl)methyl)-4-methyl-3,4,5,6-tetrahydro-[1,1′-biphenyl]-2-yl)methyl)piperazin-1-yl)benzamide] | 8.00 to 9.00 | > 9.00 |  | < 5.00 | 
C[C@@]1(CN2CCC(CN3CC4CC3CN4c3ccc4c(c3)CN(C3CCC(=O)NC3=O)C4=O)CC2)CCC(c2ccc(Cl)cc2)=C(CN2CCN(c3ccc(C(=O)NS(=O)(=O)c4ccc(N[C@H](CCN5CCCOCC5)CSc5ccccc5)c(S(=O)(=O)C(F)(F)F)c4)cc3)CC2)C1 (stereo partly drawn) [Compound 130, N-((4-(((R)-4-(1,4-oxazepan-4-yl)-1-(phenylthio)butan-2-yl)amino)-3-((trifluoromethyl)sulfonyl)phenyl)sulfonyl)-4-(4-(((4R)-4′-chloro-4-((4-((5-(2-(2,6-dioxopiperidin-3-yl)-1-oxoisoindolin-5-yl)-2,5-diazabicyclo[2.2.1]heptan-2-yl)methyl)piperidin-1-yl)methyl)-4-methyl-3,4,5,6-tetrahydro-[1,1′-biphenyl]-2-yl)methyl)piperazin-1-yl)benzamide] | 8.00 to 9.00 | 8.00 to 9.00 |  | < 5.00 | 
CC1CN(c2ccc3c(c2)CN(C2CCC(=O)NC2=O)C3=O)CC(C)N1CC1CN(C[C@]2(C)CCC(c3ccc(Cl)cc3)=C(CN3CCN(c4ccc(C(=O)NS(=O)(=O)c5ccc(N[C@H](CCN6CCCOCC6)CSc6ccccc6)c(S(=O)(=O)C(F)(F)F)c5)cc4)CC3)C2)C1 (stereo partly drawn) [Compound 129, N-((4-(((R)-4-(1,4-oxazepan-4-yl)-1-(phenylthio)butan-2-yl)amino)-3-((trifluoromethyl)sulfonyl)phenyl)sulfonyl)-4-(4-(((4R)-4′-chloro-4-((3-((4-(2-(2,6-dioxopiperidin-3-yl)-1-oxoisoindolin-5-yl)-2,6-dimethylpiperazin-1-yl)methyl)azetidin-1-yl)methyl)-4-methyl-3,4,5,6-tetrahydro-[1,1′-biphenyl]-2-yl)methyl)piperazin-1-yl)benzamide] | > 9.00 | > 9.00 |  | < 5.00 | 

Now from value to molecule, other results behind:

pEC50 [1] | pEC50 [3] | Compound | pEC50 [2] | pEC50 (WI-38 NC) | Senolytic Activity EC50 (72 hr), WI-38 NC (WI-38 NC)
> 9.00 | > 9.00 | C[C@@]1(CN2CCC(CN3CCN(CC#Cc4ccc5c(c4)CN(C4CCC(=O)NC4=O)C5=O)CC3)CC2)CCC(c2ccc(Cl)cc2)=C(CN2CCN(c3ccc(C(=O)NS(=O)(=O)c4ccc(N[C@H](CCN5CCCOCC5)CSc5ccccc5)c(S(=O)(=O)C(F)(F)F)c4)cc3)CC2)C1 (stereo partly drawn) [Compound 13, N-((4-(((R)-4-(1,4-oxazepan-4-yl)-1-(phenylthio)butan-2-yl)amino)-3-((trifluoromethyl)sulfonyl)phenyl)sulfonyl)-4-(4-(((4R)-4′-chloro-4-((4-((4-(3-(2-(2,6-12 dioxopiperidin-3-yl)-1-oxoisoindolin-5-yl)prop-2-yn-1-yl)piperazin-1-yl)methyl)piperidin-1-yl)methyl)-4-methyl-3,4,5,6-tetrahydro-[1,1′-biphenyl]-2-yl)methyl)piperazin-1-14 yl)benzamide] | 8.00 to 9.00 | < 5.00 | 
> 9.00 | > 9.00 | C[C@@]1(CN2CCC(CCN3CCN(c4ccc5c(c4)CN(C4CCC(=O)NC4=O)C5=O)CC3)CC2)CCC(c2ccc(Cl)cc2)=C(CN2CCN(c3ccc(C(=O)NS(=O)(=O)c4ccc(N[C@H](CCN5CCCOCC5)CSc5ccccc5)c(S(=O)(=O)C(F)(F)F)c4)cc3)CC2)C1 (stereo partly drawn) [Compound 65, N-((4-(((R)-4-(1,4-oxazepan-4-yl)-1-(phenylthio)butan-2-yl)amino)-3-((trifluoromethyl)sulfonyl)phenyl)sulfonyl)-4-(4-(((4R)-4′-chloro-4-((4-(2-(4-(2-(2,6-dioxopiperidin-3-yl)-1-oxoisoindolin-5-yl)piperazin-1-yl)ethyl)piperidin-1-yl)methyl)-4-methyl-3,4,5,6-tetrahydro-[1,1′-biphenyl]-2-yl)methyl)piperazin-1-yl)benzamide] |  | < 5.00 | 
8.00 to 9.00 | 8.00 to 9.00 | C[C@@]1(CN2CC(CN3CCCN(c4ccc5c(c4)CN(C4CCC(=O)NC4=O)C5=O)CC3)C2)CCC(c2ccc(Cl)cc2)=C(CN2CCN(c3ccc(C(=O)NS(=O)(=O)c4ccc(N[C@H](CCN5CCCOCC5)CSc5ccccc5)c(S(=O)(=O)C(F)(F)F)c4)cc3)CC2)C1 (stereo partly drawn) [Compound 45, N-((4-(((R)-4-(1,4-oxazepan-4-yl)-1-(phenylthio)butan-2-yl)amino)-3-((trifluoromethyl)sulfonyl)phenyl)sulfonyl)-4-(4-(((4R)-4′-chloro-4-((3-((4-(2-(2,6-dioxopiperidin-3-yl)-1-oxoisoindolin-5-yl)-1,4-diazepan-1-yl)methyl)azetidin-1-yl)methyl)-4-methyl-3,4,5,6-tetrahydro-[1,1′-biphenyl]-2-yl)methyl)piperazin-1-yl)benzamide] |  |  | ++ (100-10 μM)
> 9.00 | 8.00 to 9.00 | C[C@@]1(CN2CCC(C#Cc3ccc4c(c3)CN(C3CCC(=O)NC3=O)C4=O)CC2)CCC(c2ccc(Cl)cc2)=C(CN2CCN(c3ccc(C(=O)NS(=O)(=O)c4ccc(N[C@H](CCN5CCCOCC5)CSc5ccccc5)c(S(=O)(=O)C(F)(F)F)c4)cc3)CC2)C1 (stereo partly drawn) [Compound 132, N-((4-(((R)-4-(1,4-oxazepan-4-yl)-1-(phenylthio)butan-2-yl)amino)-3-((trifluoromethyl)sulfonyl)phenyl)sulfonyl)-4-(4-(((4R)-4′-chloro-4-((4-((2-(2,6-dioxopiperidin-3-yl)-1-oxoisoindolin-5-yl)ethynyl)piperidin-1-yl)methyl)-4-methyl-3,4,5,6-tetrahydro-[1,1′-biphenyl]-2-yl)methyl)piperazin-1-yl)benzamide] |  | < 5.00 | 
> 9.00 | > 9.00 | C[C@@]1(CN2CCN(c3ccc4c(c3)CN(C3CCC(=O)NC3=O)C4=O)CC2)CCC(c2ccc(Cl)cc2)=C(CN2CCN(c3ccc(C(=O)NS(=O)(=O)c4ccc(N[C@H](CCN5CCCOCC5)CSc5ccccc5)c(S(=O)(=O)C(F)(F)F)c4)cc3)CC2)C1 (stereo partly drawn) [Compound 127, N-((4-(((R)-4-(1,4-oxazepan-4-yl)-1-(phenylthio)butan-2-yl)amino)-3-((trifluoromethyl)sulfonyl)phenyl)sulfonyl)-4-(4-(((4R)-4′-chloro-4-((4-(2-(2,6-dioxopiperidin-3-yl)-1-oxoisoindolin-5-yl)piperazin-1-yl)methyl)-4-methyl-3,4,5,6-tetrahydro-[1,1′-biphenyl]-2-yl)methyl)piperazin-1-yl)benzamide] |  | < 5.00 | 

Reference: patent US20260355323A1, “CEREBLON-RECRUITING BCL-XL/BCL-2 DUAL DEGRADERS” (University of Florida Research Foundation, Incorporated, priority 2022, published 2026)
